What was measured:
Type in all cases: in vivo
[1] = system: barnyardgrass (Echinochloa crus-galli); assay: Test A preemergence; conditions: for Plant response rating, Barnyardgrass: 125 g ai/ha, preemergence, 0 to 100 scale (0 no effect, 100 complete control); for Barnyardgrass plant response rating (0 to 100 scale): Preemergence, 0 is no effect, 100 is complete control
Outline: (§1)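 Visual injury, scored on a 0–100 scale relative to untreated controls, was recorded about 10 d after application. Treatments were a preemergence soil spray over planted seeds or a postemergence spray on plants at the one- to two-leaf stage, 2 to 10 cm tall, all in loam soil–sand blend in the greenhouse.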

corn (Zea mays) [2] = assay: Test A preemergence; conditions: for Plant response rating, Corn: 125 g ai/ha, preemergence, 0 to 100 scale (0 no effect, 100 complete control); for Corn plant response rating (0 to 100 scale): Preemergence, 0 is no effect, 100 is complete control
Outline: as §1

[3] = system: crabgrass, large (Digitaria sanguinalis); assay: Test A preemergence; conditions: for Plant response rating, Crabgrass, Large: 125 g ai/ha, preemergence, 0 to 100 scale (0 no effect, 100 complete control); for Crabgrass, Large plant response rating (0 to 100 scale): Preemergence, 0 is no effect, 100 is complete control
Outline: as §1

[4] = system: giant foxtail (Setaria faberii); assay: Test A preemergence; conditions: for Plant response rating, Foxtail, Giant: 125 g ai/ha, preemergence, 0 to 100 scale (0 no effect, 100 complete control); for Foxtail, Giant plant response rating (0 to 100 scale): Preemergence, 0 is no effect, 100 is complete control
Outline: as §1

[5] = system: morningglory (Ipomoea spp.); assay: Test A preemergence; conditions: for Plant response rating, Morningglory: 125 g ai/ha, preemergence, 0 to 100 scale (0 no effect, 100 complete control); for Morningglory plant response rating (0 to 100 scale): Preemergence, 0 is no effect, 100 is complete control
Outline: as §1

[6] = system: pigweed (Amaranthus retroflexus); assay: Test A preemergence; conditions: for Plant response rating, Pigweed: 125 g ai/ha, preemergence, 0 to 100 scale (0 no effect, 100 complete control); for Pigweed plant response rating (0 to 100 scale): Preemergence, 0 is no effect, 100 is complete control
[7] = system: velvetleaf (Abutilon theophrasti); assay: Test A preemergence; conditions: for Plant response rating, Velvetleaf: 125 g ai/ha, preemergence, 0 to 100 scale (0 no effect, 100 complete control); for Velvetleaf plant response rating (0 to 100 scale): Preemergence, 0 is no effect, 100 is complete control
Outline: as §1

[8] = system: wheat (Triticum aestivum); assay: Test A preemergence; conditions: for Plant response rating, Wheat: 125 g ai/ha, preemergence, 0 to 100 scale (0 no effect, 100 complete control); for Wheat plant response rating (0 to 100 scale): Preemergence, 0 is no effect, 100 is complete control
Outline: as §1

[9] = system: barnyardgrass (Echinochloa crus-galli); assay: Test A postemergence
Outline: as §1

corn (Zea mays) [10] = assay: Test A postemergence
Outline: as §1

[11] = system: crabgrass, large (Digitaria sanguinalis); assay: Test A postemergence
Outline: as §1

[12] = system: giant foxtail (Setaria faberii); assay: Test A postemergence
Outline: as §1

[13] = system: morningglory (Ipomoea spp.); assay: Test A postemergence
Outline: as §1

[14] = system: pigweed (Amaranthus retroflexus); assay: Test A postemergence
Outline: as §1

[15] = system: velvetleaf (Abutilon theophrasti); assay: Test A postemergence
Outline: as §1

[16] = system: wheat (Triticum aestivum); assay: Test A postemergence
Outline: as §1

[17] = system: barnyardgrass (Echinochloa crus-galli); assay: Test B flooded paddy test; conditions: Flood, 1000 g ai/ha; 0 to 100 scale where 0 is no effect and 100 is complete control; 13 to 15 d
Outline: (§2)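 Visual ratings (0 none to 100 complete control) are relative to untreated plants, taken 13–15 d after treatment in a greenhouse. Test material went straight into floodwater standing 3 cm above the soil, kept constant, on plants at the 2-leaf stage.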

[18] = system: ducksalad (Heteranthera limosa); assay: Test B flooded paddy test; conditions: Flood, 1000 g ai/ha; 0 to 100 scale where 0 is no effect and 100 is complete control; 13 to 15 d
Outline: as §2

rice (Oryra sativa) = assay: Test B flooded paddy test; conditions: Flood, 1000 g ai/ha; 0 to 100 scale where 0 is no effect and 100 is complete control; 13 to 15 d
Outline: as §2

[19] = system: sedge, umbrella (small-flower umbrella sedge, Cyperus difformis); assay: Test B flooded paddy test; conditions: Flood, 1000 g ai/ha; 0 to 100 scale where 0 is no effect and 100 is complete control; 13 to 15 d
Outline: as §2

[20] = 500 g ai/ha, postemergence, 0 to 100 scale, 0 no effect, 100 complete control
[21] = Postemergence, 125 g ai/ha, visual injury, 0 to 100 scale (0 no effect, 100 complete control), approx. 10 d
[22] = 1000 g ai/ha, postemergence, 0 to 100 scale, 0 no effect, 100 complete control

O=C1NCC(c2ccc(-c3ccccc3)cc2)C1C(=O)Nc1ccccc1F (racemic) [Compound 365]
Plant response rating, Barnyardgrass [1]: 0 | Barnyardgrass plant response rating (0 to 100 scale) ([1]; 500 g ai/ha): 0 | Plant response rating, Corn (corn (Zea mays) [2]): 0 | Corn plant response rating (0 to 100 scale) (corn (Zea mays) [2]; 500 g ai/ha): 0 | Plant response rating, Crabgrass, Large [3]: 0 | Crabgrass, Large plant response rating (0 to 100 scale) ([3]; 500 g ai/ha): 0 | Plant response rating, Foxtail, Giant [4]: 0 | Foxtail, Giant plant response rating (0 to 100 scale) ([4]; 500 g ai/ha): 0 | Plant response rating, Morningglory [5]: 0 | Morningglory plant response rating (0 to 100 scale) ([5]; 500 g ai/ha): 0 | Plant response rating, Pigweed [6]: 0 | Pigweed plant response rating (0 to 100 scale) ([6]; 500 g ai/ha): 0 | Plant response rating, Velvetleaf [7]: 0 | Velvetleaf plant response rating (0 to 100 scale) ([7]; 500 g ai/ha): 0 | Plant response rating, Wheat [8]: 0 | Wheat plant response rating (0 to 100 scale) ([8]; 500 g ai/ha): 0 | Plant response rating, Barnyardgrass [9, 20]: 0 | Plant response rating, Barnyardgrass [9, 21]: 0 | Plant response rating, Corn (corn (Zea mays) [10]; [20]): 0 | Plant response rating, Corn (corn (Zea mays) [10]; [21]): 0 | Plant response rating, Crabgrass, Large [11, 20]: 0 | Plant response rating, Crabgrass, Large [11, 21]: 0 | Plant response rating, Foxtail, Giant [12, 20]: 0 | Plant response rating, Foxtail, Giant [12, 21]: 0 | Plant response rating, Morningglory [13, 20]: 0 | Plant response rating, Morningglory [13, 21]: 0 | Plant response rating, Pigweed [14, 20]: 0 | Plant response rating, Pigweed [14, 21]: 0 | Plant response rating, Velvetleaf [15, 20]: 0 | Plant response rating, Velvetleaf [15, 21]: 0 | Plant response rating, Wheat [16, 20]: 0 | Plant response rating, Wheat [16, 21]: 0 | Plant response rating, Barnyardgrass [17]: 0 | Plant response rating, Ducksalad [18]: 0 | Plant response rating, Rice (rice (Oryra sativa)): 0 | Plant response rating, Sedge, Umbrella [19]: 0

O=C1NCC(c2ccc(-c3ccccc3)cc2)C1C(=O)Nc1cccc(F)c1F (racemic) [Compound 366]
Plant response rating, Barnyardgrass [1]: 0 | Barnyardgrass plant response rating (0 to 100 scale) ([1]; 500 g ai/ha): 0 | Plant response rating, Corn (corn (Zea mays) [2]): 0 | Corn plant response rating (0 to 100 scale) (corn (Zea mays) [2]; 500 g ai/ha): 0 | Plant response rating, Crabgrass, Large [3]: 0 | Crabgrass, Large plant response rating (0 to 100 scale) ([3]; 500 g ai/ha): 0 | Plant response rating, Foxtail, Giant [4]: 0 | Foxtail, Giant plant response rating (0 to 100 scale) ([4]; 500 g ai/ha): 0 | Plant response rating, Morningglory [5]: 0 | Morningglory plant response rating (0 to 100 scale) ([5]; 500 g ai/ha): 0 | Plant response rating, Pigweed [6]: 0 | Pigweed plant response rating (0 to 100 scale) ([6]; 500 g ai/ha): 0 | Plant response rating, Velvetleaf [7]: 0 | Velvetleaf plant response rating (0 to 100 scale) ([7]; 500 g ai/ha): 0 | Plant response rating, Wheat [8]: 0 | Wheat plant response rating (0 to 100 scale) ([8]; 500 g ai/ha): 0 | Plant response rating, Barnyardgrass [9, 20]: 0 | Plant response rating, Barnyardgrass [9, 21]: 0 | Plant response rating, Corn (corn (Zea mays) [10]; [20]): 0 | Plant response rating, Corn (corn (Zea mays) [10]; [21]): 0 | Plant response rating, Crabgrass, Large [11, 20]: 0 | Plant response rating, Crabgrass, Large [11, 21]: 0 | Plant response rating, Foxtail, Giant [12, 20]: 0 | Plant response rating, Foxtail, Giant [12, 21]: 0 | Plant response rating, Morningglory [13, 20]: 0 | Plant response rating, Morningglory [13, 21]: 0 | Plant response rating, Pigweed [14, 20]: 0 | Plant response rating, Pigweed [14, 21]: 0 | Plant response rating, Velvetleaf [15, 20]: 0 | Plant response rating, Velvetleaf [15, 21]: 0 | Plant response rating, Wheat [16, 20]: 0 | Plant response rating, Wheat [16, 21]: 0 | Plant response rating, Barnyardgrass [17]: 0 | Plant response rating, Ducksalad [18]: 0 | Plant response rating, Rice (rice (Oryra sativa)): 0 | Plant response rating, Sedge, Umbrella [19]: 0

N#CCN(C(=O)C1C(=O)NCC1c1ccc(F)c(F)c1)c1ccccc1[N+](=O)[O-] (stereo not shown) [Compound 713]
Barnyardgrass plant response rating (0 to 100 scale) ([1]; 1000 g ai/ha): 0 | Corn plant response rating (0 to 100 scale) (corn (Zea mays) [2]; 1000 g ai/ha): 0 | Crabgrass, Large plant response rating (0 to 100 scale) ([3]; 1000 g ai/ha): 80 | Foxtail, Giant plant response rating (0 to 100 scale) ([4]; 1000 g ai/ha): 40 | Morningglory plant response rating (0 to 100 scale) ([5]; 1000 g ai/ha): 0 | Pigweed plant response rating (0 to 100 scale) ([6]; 1000 g ai/ha): 0 | Velvetleaf plant response rating (0 to 100 scale) ([7]; 1000 g ai/ha): 0 | Wheat plant response rating (0 to 100 scale) ([8]; 1000 g ai/ha): 0 | Plant response rating, Barnyardgrass [9, 22]: 0 | Plant response rating, Corn (corn (Zea mays) [10]; [22]): 0 | Plant response rating, Crabgrass, Large [11, 22]: 0 | Plant response rating, Foxtail, Giant [12, 22]: 0 | Plant response rating, Morningglory [13, 22]: 0 | Plant response rating, Pigweed [14, 22]: 0 | Plant response rating, Velvetleaf [15, 22]: 0 | Plant response rating, Wheat [16, 22]: 0
